The supplement of paper PMC10307832

What was measured:
Assay in all cases: relative viability (nuclei count vs DMSO), 5 days (fraction); higher = more cells survive
[1] = test system: NCI-H2085
Procedure, shortened: (§1)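 Lung cancer cell lines were seeded in 1536-well plates and dosed by pin tool the next day, with either a single drug or a fixed anchor-drug dose combined with five library-drug doses (not always all listed) spaced in √10 steps. Five days later, one step fixed the cells and stained their nuclei (final 0.05% Triton X-100, 1% formaldehyde, 1 ug/ml Hoechst), and nuclei were counted on 4× images. Relative viability is the nuclei count in treated wells divided by the count in vehicle wells, and each value is the median of duplicate plates.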

[2] = test system: NCI-H2347
Procedure, shortened: as §1

[3] = test system: COR-L23
Procedure, shortened: as §1

[4] = test system: SW 1573
Procedure, shortened: as §1

[5] = test system: HCC-78
Procedure, shortened: as §1

[6] = test system: NCI-H358
Procedure, shortened: as §1

[7] = test system: NCI-H650
Procedure, shortened: as §1

[8] = test system: NCI-H2126
Procedure, shortened: as §1

[9] = test system: UMC-11
Procedure, shortened: as §1

[10] = test system: NCI-H2342
Procedure, shortened: as §1

[11] = test system: LU99A
Procedure, shortened: as §1

[12] = test system: PC-14
Procedure, shortened: as §1

[13] = test system: NCI-H2023
Procedure, shortened: as §1

[14] = test system: LC-2-ad
Procedure, shortened: as §1

[15] = test system: NCI-H1651
Procedure, shortened: as §1

[16] = test system: NCI-H1993
Procedure, shortened: as §1

[17] = test system: HARA
Procedure, shortened: as §1

[18] = test system: HCC-15
Procedure, shortened: as §1

[19] = test system: NCI-H1915
Procedure, shortened: as §1

[20] = test system: NCI-H1355
Procedure, shortened: as §1

[21] = test system: NCI-H838
Procedure, shortened: as §1

[22] = test system: EPLC-272H
Procedure, shortened: as §1

**Q.** What does the source list for `NC(=O)Nc1cc(-c2cccc(F)c2)sc1C(=O)N[C@H]1CCCNC1` [AZD7762] + Nc1nc2[nH]cc(CCc3ccc(C(=O)N[C@@H](CCC(=O)O)C(=O)O)cc3)c2c(=O)[nH]1 [Pemetrexed] (partner 0.2 µM)?
**A.** relative viability ([1]; first compound 0.01 µM): 0.932; relative viability ([1]; first compound 0.03162 µM): 0.918; relative viability ([1]; first compound 0.1 µM): 1; relative viability ([1]; first compound 0.3162 µM): 0.795; relative viability ([1]; first compound 1 µM): 0.673; relative viability ([2]; first compound 0.01 µM): 0.448; relative viability ([2]; first compound 0.03162 µM): 0.395; relative viability ([2]; first compound 0.1 µM): 0.455; relative viability ([2]; first compound 0.3162 µM): 0.403; relative viability ([2]; first compound 1 µM): 0.329; relative viability ([3]; first compound 0.01 µM): 0.191; relative viability ([3]; first compound 0.03162 µM): 0.185; relative viability ([3]; first compound 0.1 µM): 0.181; relative viability ([3]; first compound 0.3162 µM): 0.168; relative viability ([3]; first compound 1 µM): 0.131; relative viability ([4]; first compound 0.01 µM): 0.796; relative viability ([4]; first compound 0.03162 µM): 0.778; relative viability ([4]; first compound 0.1 µM): 0.717; relative viability ([4]; first compound 0.3162 µM): 0.604; relative viability ([4]; first compound 1 µM): 0.272; relative viability ([5]; first compound 0.01 µM): 0.927; relative viability ([5]; first compound 0.03162 µM): 0.903; relative viability ([5]; first compound 0.1 µM): 0.895; relative viability ([5]; first compound 0.3162 µM): 0.895; relative viability ([5]; first compound 1 µM): 0.889; relative viability ([6]; first compound 0.01 µM): 0.23; relative viability ([6]; first compound 0.03162 µM): 0.188; relative viability ([6]; first compound 0.1 µM): 0.19; relative viability ([6]; first compound 0.3162 µM): 0.149; relative viability ([6]; first compound 1 µM): 0.128; relative viability ([7]; first compound 0.01 µM): 1.01; relative viability ([7]; first compound 0.03162 µM): 0.891; relative viability ([7]; first compound 0.1 µM): 0.968; relative viability ([7]; first compound 0.3162 µM): 0.821; relative viability ([7]; first compound 1 µM): 0.644; relative viability ([8]; first compound 0.01 µM): 0.659; relative viability ([8]; first compound 0.03162 µM): 0.646; relative viability ([8]; first compound 0.1 µM): 0.553; relative viability ([8]; first compound 0.3162 µM): 0.576; relative viability ([8]; first compound 1 µM): 0.365; relative viability ([9]; first compound 0.01 µM): 0.833; relative viability ([9]; first compound 0.03162 µM): 0.797; relative viability ([9]; first compound 0.1 µM): 0.782; relative viability ([9]; first compound 0.3162 µM): 0.495; relative viability ([9]; first compound 1 µM): 0.369; relative viability ([10]; first compound 0.01 µM): 0.784; relative viability ([10]; first compound 0.03162 µM): 0.797; relative viability ([10]; first compound 0.1 µM): 0.78; relative viability ([10]; first compound 0.3162 µM): 0.755; relative viability ([10]; first compound 1 µM): 0.669; relative viability ([11]; first compound 0.01 µM): 0.204; relative viability ([11]; first compound 0.03162 µM): 0.165; relative viability ([11]; first compound 0.1 µM): 0.142; relative viability ([11]; first compound 0.3162 µM): 0.151; relative viability ([11]; first compound 1 µM): 0.109; relative viability ([12]; first compound 0.01 µM): 0.133; relative viability ([12]; first compound 0.03162 µM): 0.0943; relative viability ([12]; first compound 0.1 µM): 0.0891; relative viability ([12]; first compound 0.3162 µM): 0.0706; relative viability ([12]; first compound 1 µM): 0.0517; relative viability ([13]; first compound 0.01 µM): 0.211; relative viability ([13]; first compound 0.03162 µM): 0.156; relative viability ([13]; first compound 0.1 µM): 0.112; relative viability ([13]; first compound 0.3162 µM): 0.124; relative viability ([13]; first compound 1 µM): 0.0879; relative viability ([14]; first compound 0.01 µM): 0.3; relative viability ([14]; first compound 0.03162 µM): 0.277; relative viability ([14]; first compound 0.1 µM): 0.277; relative viability ([14]; first compound 0.3162 µM): 0.229; relative viability ([14]; first compound 1 µM): 0.241; relative viability ([15]; first compound 0.01 µM): 0.624; relative viability ([15]; first compound 0.03162 µM): 0.688; relative viability ([15]; first compound 0.1 µM): 0.558; relative viability ([15]; first compound 0.3162 µM): 0.385; relative viability ([15]; first compound 1 µM): 0.259; relative viability ([16]; first compound 0.01 µM): 0.559; relative viability ([16]; first compound 0.03162 µM): 0.487; relative viability ([16]; first compound 0.1 µM): 0.602; relative viability ([16]; first compound 0.3162 µM): 0.586; relative viability ([16]; first compound 1 µM): 0.578; relative viability ([17]; first compound 0.01 µM): 0.23; relative viability ([17]; first compound 0.03162 µM): 0.25; relative viability ([17]; first compound 0.1 µM): 0.198; relative viability ([17]; first compound 0.3162 µM): 0.16; relative viability ([17]; first compound 1 µM): 0.164; relative viability ([18]; first compound 0.01 µM): 0.213; relative viability ([18]; first compound 0.03162 µM): 0.234; relative viability ([18]; first compound 0.1 µM): 0.232; relative viability ([18]; first compound 0.3162 µM): 0.209; relative viability ([18]; first compound 1 µM): 0.187; relative viability ([19]; first compound 0.01 µM): 0.434; relative viability ([19]; first compound 0.03162 µM): 0.412; relative viability ([19]; first compound 0.1 µM): 0.346; relative viability ([19]; first compound 0.3162 µM): 0.264; relative viability ([19]; first compound 1 µM): 0.217; relative viability ([20]; first compound 0.01 µM): 1.07; relative viability ([20]; first compound 0.03162 µM): 1.03; relative viability ([20]; first compound 0.1 µM): 1.08; relative viability ([20]; first compound 0.3162 µM): 0.708; relative viability ([20]; first compound 1 µM): 0.709; relative viability ([21]; first compound 0.01 µM): 0.25; relative viability ([21]; first compound 0.03162 µM): 0.192; relative viability ([21]; first compound 0.1 µM): 0.177; relative viability ([21]; first compound 0.3162 µM): 0.177; relative viability ([21]; first compound 1 µM): 0.167; relative viability ([22]; first compound 0.01 µM): 0.321; relative viability ([22]; first compound 0.03162 µM): 0.214; relative viability ([22]; first compound 0.1 µM): 0.174; relative viability ([22]; first compound 0.3162 µM): 0.12; relative viability ([22]; first compound 1 µM): 0.0715
